{"source": "patent US4513009A", "about": "“Aminoacid derivatives and their therapeutic applications” (priority 1980, dated 1985)", "key": {"[1]": {"tested_on": "phenylbenzoquinone-induced pain", "assay": "Phenylbenzoquinone or writhing test", "type": "in vivo", "settings": "0.7 mg/kg i.v.; vs controls p<0.01", "text": "3--Phenylbenzoquinone or \"writhing test\" according to the method of SIEGMUND and co-workers (Proc. Soc. Expert. Biol. Med. 1957, 95, 729-731)."}, "[2]": {"tested_on": "mice", "settings": "mouse, in vivo"}, "[3]": {"tested_on": "licking reflex of mice on a plate heated at 55° C.", "assay": "Hot-plate test (55° C.): specific antalgic effect", "type": "in vivo", "settings": "intravenous", "protocol": "Licking reflex of mice on a plate heated at 55° C. according to the method of Jacob. and co-workers (Arch. Int. Pharmacodyn. 122, 287-300, 1959: 133, 296-300, 1961).\n(b) Specific antalgic effect"}, "[4]": {"tested_on": "mice", "assay": "Subacute toxicity, 3 weeks in mice, with reversibility test", "settings": "50 mg/kg 3 times/day, vs solvent controls"}, "[5]": {"molecular_target": "enkephalinase (enkephalin dipeptidylcarboxypeptidase)", "assay": "Determination of enkephalinasic (enkephalin dipeptidylcarboxypeptidasic) activity and effect of inhibitors, striatal membrane fraction, 3H-leucine-enkephalin", "type": "biochemical, rats or mice", "settings": "10 nM leucine-enkephalin 3H, 25° C., pH 7.4, 15 mn, read-out: 50% inhibitory concentration", "protocol": "Determination of the \"enkephalinasic\" (enkephalin dipeptidylcarboxypeptidasic) activity and determination of the effect of inhibitors.\nThe enzyme preparation used is a membrane fraction from the striatum of rats or mice.\nThis fraction is obtained by homogenization at 4° C. in 20 volumes Tris-HCl buffer 0.05M (pH 7.4) followed by two successive centrifugations (1000 g×min. and 200,000 g×min.) at the end of which the sediment of the second centrifugation is retained. It is washed by re-suspension in 10 ml of the buffer followed by centrifugation (200,000 g×min) and the resulting sediment is in turn washed superficially to complete the removal of the soluble enzymes. The resulting membrane fraction is taken up into the buffer at 4° C., to obtain a suspension comprising about 1.5 mg proteins per ml.\nAn aliquot sample (50 μl) of the membrane suspension is then incubated in a final volume of 100 μl at 25° C. in the presence of 10 nM leucine-enkephalin ^3 H (39 Ci/mmole), previously purified by column chromatography over Porapak Q (100-120 mesh, Waters Assoc.) and […] puromycine, an aminopeptidase inhibitor. Incubation time is generally set at 15 mn. in order to determine the initial rate of the formation of tripeptide Tyr-Gly-Gly-^3 H characteristic of the enkephalin dipeptidylcarboxypeptidasic (enkephalinasic) activity.\nDetermination of the radioactivity of the tripeptide is effected by liquid scintillation spectrometry. […]"}}, "data": [{"smiles": "CC(=O)SCC(Cc1ccccc1)C(=O)NCC(=O)OCc1ccccc1", "note": "(stereo not drawn) [Compound 53, N-[3-Acetylthio-2-benzylpropanoyl]glycine benzyl ester]", "values": [{"measurement": "protection from phenylbenzoquinone-induced pain", "setting": "[1]", "value": "protect the treated animals from phenylbenzoquinone-induced pain, with a significant difference with respect to the controls, p<0.01"}, {"measurement": "tolerance, habit-forming and weaning phenomena (reversibility test)", "setting": "[2]", "value": "no sign of tolerance, of habit-forming, and no weaning phenomena could be observed"}, {"measurement": "ED50", "setting": "[3]; Mus musculus, hot plate 55° C.", "value": 3, "unit": "mg/kg"}, {"measurement": "antalgic effect in the hot (55° C.) plate test", "setting": "[3]", "value": "have an antalgic effect"}, {"measurement": "weight of the organs and their anatomic-pathologic examination", "setting": "[4]", "value": "failed to show any difference with respect to the solvent controls"}, {"measurement": "IC50", "setting": "[5]", "value": 0.38, "unit": "µM"}]}]}
